# Measurements: EP4813990A1, “COMPOUND FOR TREATING CANCER” (INNOLAKE BIOPHARMA (HANGZHOU) CO., LTD., priority 2023, dated 2025)
# Assays:
# A2b receptor = A2b receptor (Homo sapiens, UniProt P29275); experiment: Adenosine receptor selectivity, A2aR compared with A2b; type: binding
# Text: (§1) Meanwhile, ILB-2109 had high selectivity for A2aR (compared with A1, A2b and A3 receptors, the selectivity was 18.9 times, 40.7 times and 3424.7 times respectively).
# A3 receptor = A3 receptor (Homo sapiens, UniProt P0DMS8); experiment: Adenosine receptor selectivity, A2aR compared with A3; type: binding
# Sequence of A3 receptor (P0DMS8 whole entry): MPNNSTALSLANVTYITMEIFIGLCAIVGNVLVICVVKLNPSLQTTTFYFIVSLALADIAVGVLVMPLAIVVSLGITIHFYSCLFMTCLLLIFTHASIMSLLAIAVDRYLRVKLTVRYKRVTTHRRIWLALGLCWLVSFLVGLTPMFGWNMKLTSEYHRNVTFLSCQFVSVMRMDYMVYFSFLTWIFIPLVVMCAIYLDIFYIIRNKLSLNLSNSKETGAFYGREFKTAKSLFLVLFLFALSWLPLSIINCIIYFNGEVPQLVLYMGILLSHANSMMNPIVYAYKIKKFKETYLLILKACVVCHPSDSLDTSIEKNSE
# Text: as §1
# [1] = SD rat absorption test (pharmacokinetics); type: in vivo, SD rats; conditions: for bioavailability / AUC(0-t) / half-life / clearance / Vd / Cmax: Sprague-Dawley, rat, plasma; for bioavailability: oral 12 mg/kg; for half-life: read-out: elimination half-life (T1/2) (converted); for clearance: read-out: plasma clearance rate (CL); for Vd: read-out: steady-state apparent volume of distribution (Vdss); for Cmax: read-out: peak concentrations (Cmax); for ratio of AUC0-last on Day 7 to Day 1 / ratio of Cmax on Day 7 to Day 1: continuous oral 40 mg/kg for 7 days
# Protocol: (§2) According to the Technical Guidelines for Non-clinical Pharmacokinetic Studies of Drugs and the results of in vitro metabolic species difference studies, liquid chromatography-tandem mass spectrometry (LC-MS/MS) was used in this pharmacokinetic study to fully verify the analytical method for the determination of ILB-2109 content in plasma (EDTA-K2 anticoagulation) of Sprague-Dawley rats and cynomolgus monkeys. The linear range of the method was 20.0~20000 nM. The precision, accuracy and other indicators of the method were confirmed to comply with the relevant regulations of biological sample detection.
# This experiment studied the pharmacokinetic properties of ILB-2109 in female and male SD rats, including 1) 2 mg/kg single intravenous injection administration study; 2) 12, 40 and 120 mg/kg oral dose escalation study; 3) 40 mg/kg repeated oral administration BID for 7 consecutive days.
# [2] = Cynomolgus monkey absorption test (pharmacokinetics); type: in vivo, cynomolgus monkeys; conditions: for Cmax: read-out: peak concentration (Cmax)
# Protocol: as §2
# This experiment studied the pharmacokinetic properties of ILB-2109 in female and male cynomolgus monkeys, including 1) 3 mg/kg single intravenous injection administration study; 2) 3, 15 and 60 mg/kg oral dose escalation study; 3) 15 mg/kg oral administration BID for 7 consecutive days.
# Plasma protein binding [3] = type: in vitro ADME; conditions: one range given for CD-1 mice, Sprague-Dawley rats, Beagle dogs and cynomolgus monkeys
# Plasma protein binding [4] = type: in vitro ADME; conditions: one range given for CD-1 mice, Sprague-Dawley rats, Beagle dogs and cynomolgus monkeys; remark: listed apart in the source
# Plasma protein binding [5] = type: in vitro ADME; conditions: one range given for CD-1 mice, Sprague-Dawley rats, Beagle dogs and cynomolgus monkeys; remark: listed apart in the source
# [6] = Excretion of total radioactivity in bile duct cannulated (BDC) rats; type: in vivo
# CYP1A2 = experiment: In vitro hepatocyte induction assay; type: in vitro ADME
# Text: (§3) In vitro hepatocyte induction assay was used to evaluate the effect of ILB-2109 on the enzyme activity and gene expression level of cytochrome P450 isoenzymes CYP1A2, CYP2B6 and CYP3A4.
# CYP2B6 = experiment: In vitro hepatocyte induction assay; type: in vitro ADME
# Text: as §3
# CYP3A4 = experiment: In vitro hepatocyte induction assay; type: in vitro ADME; conditions: for induction, gene expression level: hepatocytes
# Text: as §3
# CHL cells = experiment: Chromosome aberration test; type: cell-based; conditions: CHL cells treated at 3.2, 16.0 and 80.0 µg/mL
# Text: The test observed the effect of ILB-2109 on chromosome structure and number of mammalian cells (CHL cells).
# [7] = test system: bone marrow polychromatic erythrocytes; experiment: Micronucleus test; type: in vivo; conditions: SD rats, intragastric 500 ~ 2000 mg/kg
# Protocol: SD rats were given intragastric administration of 500 ~ 2000 mg/kg ILB-2109.
# [8] = female SD rats, single intravenous injection 2 mg/kg
# [9] = female SD rats, single oral 12 mg/kg
# [10] = female SD rats, single oral 40 mg/kg
# [11] = female SD rats, single oral 120 mg/kg
# [12] = male SD rats, single intravenous injection 2 mg/kg
# [13] = male SD rats, single oral 12 mg/kg
# [14] = male SD rats, single oral 40 mg/kg
# [15] = male SD rats, single oral 120 mg/kg
# [16] = both sexes, cynomolgus monkey, plasma, po, 3 mg/kg, cynomolgus monkeys, single oral 3 mg/kg
# [17] = both sexes, cynomolgus monkey, plasma, po, 15 mg/kg, cynomolgus monkeys, oral 15 mg/kg twice a day for 7 days, Day 1
# [18] = both sexes, cynomolgus monkey, plasma, po, 15 mg/kg, cynomolgus monkeys, oral 15 mg/kg twice a day for 7 days, Day 7
# [19] = both sexes, cynomolgus monkey, plasma, po, 15 mg/kg, cynomolgus monkeys, single oral 15 mg/kg
# [20] = both sexes, cynomolgus monkey, plasma, po, 60 mg/kg, cynomolgus monkeys, single oral 60 mg/kg
# [21] = BDC rats, 0-72 hours after single oral administration
# [22] = hepatocytes, 0.200, 2.00 or 20.0 µM
# Sequence of A2b receptor (P29275 whole entry): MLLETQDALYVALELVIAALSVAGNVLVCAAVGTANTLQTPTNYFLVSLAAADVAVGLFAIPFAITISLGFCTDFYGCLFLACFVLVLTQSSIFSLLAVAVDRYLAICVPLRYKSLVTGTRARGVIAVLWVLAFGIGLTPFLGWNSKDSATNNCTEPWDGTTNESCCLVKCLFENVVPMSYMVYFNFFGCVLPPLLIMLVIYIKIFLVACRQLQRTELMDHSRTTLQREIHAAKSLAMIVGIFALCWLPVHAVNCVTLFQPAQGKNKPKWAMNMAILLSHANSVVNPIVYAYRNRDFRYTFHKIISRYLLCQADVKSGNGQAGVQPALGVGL
compound,measurement,setting,value
Cc1cc(-c2c(-c3ccccc3)nc(N)n3nc(CO)nc23)cc(C(F)(F)F)n1 [ILB-2109],selectivity for A2aR compared with A2b receptor,A2b receptor,40.7 times
same,selectivity for A2aR compared with A3 receptor,A3 receptor,3424.7 times
same,tolerability in the PK study,"[1]; SD rats, all dose regimens of the absorption test",tolerated the compound well without any abnormal manifestations
same,bioavailability,[1]; female SD rats,67.8%
same,AUC(0-t),[1]; [8],60.3 ± 5.18 µM·h
same,half-life,[1]; [8],5.71 ± 1.25 h
same,clearance,[1]; [8],1.33 ± 0.135 mL/min/kg
same,Vd,[1]; [8],0.526 ± 0.0558 L/kg
same,AUC(0-t),[1]; [9],247 ± 22.1 µM·h
same,Cmax,[1]; [9],33.7 ± 2.8 µM
same,AUC(0-t),[1]; [10],915 ± 169 µM·h
same,Cmax,[1]; [10],124 ± 17.5 µM
same,AUC(0-t),[1]; [11],1560 ± 205 µM·h
same,Cmax,[1]; [11],155 ± 24.3 µM
same,bioavailability,[1]; male SD rats,73%
same,AUC(0-t),[1]; [12],13.3 ± 2.26 µM·h
same,half-life,[1]; [12],1.26 ± 0.361 h
same,clearance,[1]; [12],6.3 ± 1.04 mL/min/kg
same,Vd,[1]; [12],0.681 ± 0.0975 L/kg
same,AUC(0-t),[1]; [13],58.9 ± 19.2 µM·h
same,Cmax,[1]; [13],23.8 ± 2.23 µM
same,AUC(0-t),[1]; [14],296 ± 54.1 µM·h
same,Cmax,[1]; [14],63.3 ± 1.65 µM
same,AUC(0-t),[1]; [15],792 ± 167 µM·h
same,Cmax,[1]; [15],118 ± 19.8 µM
same,peak time,[1]; [9],2.33 ± 1.53 h
same,peak time,[1]; [10],3.33 ± 1.15 h
same,peak time,[1]; [11],2.67 ± 1.15 h
same,dose proportionality of systemic exposure (AUC0-last) and Cmax,"[1]; female and male rats, oral dose range 12 to 40 mg/kg",increased basically proportionally to the dose
same,ratio of AUC0-last on Day 7 to Day 1,[1]; female rats,0.669
same,ratio of Cmax on Day 7 to Day 1,[1]; female rats,0.899
same,peak time,[1]; [13],0.667 ± 0.289 h
same,peak time,[1]; [14],1.33 ± 0.577 h
same,peak time,[1]; [15],2.67 ± 1.15 h
same,ratio of AUC0-last on Day 7 to Day 1,[1]; male rats,0.584
same,ratio of Cmax on Day 7 to Day 1,[1]; male rats,0.673
same,ratio of AUC0-last between female and male rats,[1]; oral single dose 12 mg/kg,4.19
same,ratio of AUC0-last between female and male rats,[1]; oral single dose 40 mg/kg,3.09
same,ratio of AUC0-last between female and male rats,[1]; oral single dose 120 mg/kg,1.97
same,AUC(0-t),"[2]; both sexes, cynomolgus monkey, plasma, iv, 3 mg/kg, female and male cynomolgus monkeys, single intravenous injection 3 mg/kg",39.5 ± 5.27 µM·h
same,AUC(0-t),[2]; [16],35.2 ± 6.87 µM·h
same,Cmax,[2]; [16],8.19 ± 1.81 µM
same,AUC(0-t),[2]; [17],172 ± 34.4 µM·h
same,Cmax,[2]; [17],18.2 ± 4 µM
same,AUC(0-t),[2]; [18],268 ± 42.5 µM·h
same,Cmax,[2]; [18],28.3 ± 4.78 µM
same,AUC(0-t),[2]; [19],192 ± 51.6 µM·h
same,Cmax,[2]; [19],33.9 ± 9.66 µM
same,AUC(0-t),[2]; [20],571 ± 254 µM·h
same,Cmax,[2]; [20],59.3 ± 33.3 µM
same,bioavailability,"[2]; both sexes, cynomolgus monkey, plasma, cynomolgus monkeys, 3 mg/kg oral dose group",89.1%
same,half-life,"[2]; both sexes, cynomolgus monkey, plasma, female and male cynomolgus monkeys, single intravenous injection 3 mg/kg, read-out: elimination half-life (T1/2) (converted)",4.33 ± 0.75 h
same,clearance,"[2]; both sexes, cynomolgus monkey, plasma, female and male cynomolgus monkeys, single intravenous injection 3 mg/kg, read-out: plasma clearance rate (CL)",3.13 ± 0.361 mL/min/kg
same,Vd,"[2]; both sexes, cynomolgus monkey, plasma, female and male cynomolgus monkeys, single intravenous injection 3 mg/kg, read-out: steady-state apparent volume of distribution (Vd)",0.867 ± 0.141 L/kg
same,gender difference in systemic exposure (AUC0-last and Cmax),"[2]; cynomolgus monkeys, each oral dose",no significant gender difference
same,accumulation of systemic exposure,"[2]; cynomolgus monkeys, oral 15 mg/kg twice a day for 7 consecutive days",no obvious accumulation of systemic exposure
same,peak time,"[2]; cynomolgus monkeys, oral 15 mg/kg twice a day for 7 days",3.00 ± 1.10 h
same,dose proportionality of systemic exposure (AUC0-last),"[2]; cynomolgus monkeys, oral dose 3 to 60 mg/kg",increased basically proportionally to the dose
same,peak time,"[2]; cynomolgus monkeys, single oral 3 mg/kg",1.33 ± 0.516 h
same,peak time,"[2]; cynomolgus monkeys, single oral 15 mg/kg",2.00 ± 1.10 h
same,peak time,"[2]; cynomolgus monkeys, single oral 60 mg/kg",4.00 ± 2.19 h
same,binding rate in plasma,Plasma protein binding [3],87.3%-95.0%
same,binding rate in plasma,Plasma protein binding [4],87.3%-95.0%
same,binding rate in plasma,Plasma protein binding [5],87.3%-95.0%
same,average of total radioactivity recovery,[6]; [21],93.63%
same,"cage washing and cleaning fluid, share of the administered dose",[6]; [21],0.85%
same,"feces, share of the administered dose",[6]; [21],14.45%
same,"total biliary excretion, share of the administered dose",[6]; [21],66.17%
same,"urine, share of the administered dose",[6]; [21],12.16%
same,oral absorption rate,[6]; from total radioactive excretion of bile and urine in BDC rats,at least 78.33%
same,"induction, gene expression level","CYP1A2; hepatocytes, 20.0 µM, Donor 1",inducer
same,"induction, enzyme activity",CYP1A2; [22],not an inducer
same,"induction, gene expression level","CYP2B6; hepatocytes, 20.0 µM, Donor 1",inducer
same,"induction, enzyme activity",CYP2B6; [22],not an inducer
same,"induction, gene expression level","CYP3A4; 2.00 µM, Donor 1 and Donor 3",inducer
same,"induction, gene expression level","CYP3A4; 20.0 µM, Donor 1, 2 and 3",inducer
same,"induction, enzyme activity",CYP3A4; [22],not an inducer
same,chromosome aberration test result,CHL cells,negative
same,micronucleus induction,[7],no micronucleus-inducing effect
